One assay addresses T1, Native human MIF (Homo sapiens, UniProt P14174).
T1 sequence (P14174 2-115 limits assumed): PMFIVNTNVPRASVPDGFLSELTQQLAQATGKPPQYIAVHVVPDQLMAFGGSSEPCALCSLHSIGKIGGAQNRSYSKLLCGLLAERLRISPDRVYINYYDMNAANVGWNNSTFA
As to the kind of experiment: MIF tautomerase activity assay (HPP substrate). In kind it is biochemical. Conditions: absorbance at 300 nm. As for the experimental part: (§1) The ability of candidate compounds to inhibit this tautomerase activity is quantitated by wing hydroxyphenyl pyruvic acid (HPP) as a substrate and following the increase in absorbance due to the enzymatic formation of the HPP enol-borate complex at 300 nm in the absence and presence of a test compound. The IC50 value of compounds was determined by plotting the initial velocities determined at 300 nm as a function of a test compound's concentration. Assays were carried out in a 96 or 384 well plate format.
Representative MIF inhibitors were tested in the assay described above and the results tabulated in Table 1 wherein “A” represents ≦1 μM; “B” represents >1 μM and ≦100 μM; “C” represents >100 μM

Another assay deals with LPS-stimulated PBMCs. The assay is described as follows: Cytokine production in LPS-stimulated human PBMCs (ELISA). Type of assay: cell-based. Conditions: Homo sapiens, PBMC, LPS-stimulated PBMCs, 1 hour preincubation, 20 hours; for inhibition at 2.5 µM: compound at 2.5 uM; for inhibition at 25 µM: compound at 25 uM. An excerpt: (§2) MIF is secreted by monocytes/macrophages, activated T cells and several effector cells that play an important role in the perpetuation of inflammatory responses of the disease pathogenesis of several autoimmune and inflammatory disorders. MIF promotes the production of proinflammatory mediators such as tumor necrosis factor-α (TNF-α), interleukin (IL)-1β, IL-6 and IL-8 acting in an autocrine and paracrine function in the induction of proinflammatory responses. MIF has also been reported to stimulate the production of IL-17, a T helper 17 (Th17)-specific cytokine critical to the pathogenesis of several autoimmune and inflammatory diseases. […] Mono-Mac-6 Cells: The cellular efficacy of compound candidates is determined using the human monocytic cell line, Mono-Mac-6 cells (MM6 cells) as it has been shown that MM6 cells abundantly express MIF receptors CD74 and CXCR4. MIF-mediated signal transduction through these receptors may be important for the production of inflammatory mediators, including TNF-α, IL-1β, IL-6, IL-8, interferon-γ (IFN-γ) and prostaglandin E2 (PGE2) in these cells. To induce the production of inflammatory mediators, MM6 cells will be plated at a final concentration of 5×10^5 cells/ml in RPMI 1640 medium containing 1% heat-inactivated low-pyrogen fetal bovine serum, 2 mM GlutaMAX-I, 1% non-essential amino acids, 1% sodium pyruvate, 100 units/ml penicillin G and 100 μg/ml streptomycin (Gibco BRL Life Technologies). Cells will be stimulated with 100 ng/ml rhMIF purchased commercially or generated in house with or without inhibitor for 20 h at 37° C. with 5% CO2. The supernatants are stored at […] until they are to be assayed. The levels of inflammatory mediators will be determined using commercial :ELISA kits (eBiosciences). Human Peripheral Blood Mononuclear Cells (PBMCs): The cellular efficacy of compound candidates in inhibiting the production of proinflammatory mediators TNF-α, IL-1β, IL-6 and IL-8 following lipopolysaccharide (LPS) and rhMIF stimulation, and the production of T helper 17 (Th17)-specific cytokines IL-17F and IL-22 following anti-CD3/anti-CD28 stimulation, are determined in human PBMCs. To induce the production of proinflammatory cytokine mediators, cryopreserved human PBMCs (Cellular Technology Ltd.) are plated at a final concentration of 2×10^5 cells/ml in RPMI 1640 medium containing 1% heat-inactivated fetal bovine serum, 1% L-Glutamine and 1% Penicillin/Streptomycin (Lonza). Cells are pre-incubated with or without inhibitor compounds dissolved in DMSO for 1 hour, then stimulated with LPS (Sigma Aldrich) or rhMIF to yield final concentrations of <0.1% DMSO, 100 ng/ml LPS and the compound concentration of interest. The potency of the compound candidates in inhibiting cytokine production is compared, to other small molecule MIF inhibitor standards ISO-1 (EMD Chemicals) N-acetyl-p-benzoquinone imine (NAPQI) and Ibudilast (TCI America). Cells were incubated for 20 hours at 37° C., 5% CO2. For the Th17-specific cytokine production assay, cells are stimulated with 5 ug/mL plate immobilized anti-CD3 (eBioscience) and 2 ug/mL soluble anti-CD28 (eBioscience) in the presence or absence of inhibitor compounds dissolved in DMSO to yield final compound concentrations of interest at <0.1% DMSO. Cells were incubated for 72 hours at 37° C. and 5% CO2. The supernatants are stored at −20° C. until they are to be assayed by ELISA. Cell viability is determined using PrestoBlue™ Cell Viability Reagent (Invitrogen). The cytokine production levels of TNF-α, IL-1β, IL-6, IL-8, IL-17F and IL-22 are determined using commercial ELISA kits (eBiosciences). Human Rheumatoid Arthritis Synovial Fibroblast (RASF) Cell Line: RASF cells are cultured in Dulbecco's modified Eagle's medium with 15% FBS, 1% glutamine, and 1% penicillin/streptamycin (all from Gibco (Invitrogen), Gaithersburg, Md.). […]

In assay [1] the test system is anti-CD3/anti-CD28-stimulated PBMCs. As to the kind of experiment: Th17-specific cytokine production in anti-CD3/anti-CD28-stimulated human PBMCs (ELISA). Type of assay: cell-based. The following applies: PBMC, compound at 2.5 uM, 72 hours.
Excerpt: as §2, with “Cells are pre-incubated with or without inhibitor compounds dissolved in DMSO for 1 hour, then stimulated with LPS (Sigma Aldrich) or rhMIF to yield final concentrations of <0.1% DMSO, 100 ng/ml LPS and the compound concentration of interest. The potency of the compound candidates in inhibiting cytokine production is compared, to other small molecule MIF inhibitor standards ISO-1 (EMD Chemicals) N-acetyl-p-benzoquinone imine (NAPQI) and Ibudilast (TCI America). Cells were incubated for 20 hours at 37° C., 5% CO2. For the Th17-specific cytokine production assay, cells are stimulated with 5 ug/mL plate immobilized anti-CD3 (eBioscience) and 2 ug/mL soluble anti-CD28 (eBioscience) in the presence or absence of inhibitor compounds dissolved in DMSO to yield final compound concentrations of interest at <0.1% DMSO. Cells were incubated for 72 hours at 37° C. and 5% CO2. The supernatants are stored at −20° C. until they are to be assayed by ELISA.” left out, “(eBiosciences).” for “(eBiosciences). Human Rheumatoid Arthritis Synovial Fibroblast (RASF) Cell Line: RASF cells are cultured in Dulbecco's modified Eagle's medium with 15% FBS, 1% glutamine, and 1% penicillin/streptamycin (all from Gibco (Invitrogen), Gaithersburg, Md.).”

For the next assay, the target named is T2, MIF (Homo sapiens, UniProt P14174).
T2 sequence (P14174 2-115 limits assumed): T1 sequence (P14174 2-115 limits assumed)
As to the kind of experiment: Time dependence in the MIF tautomerase activity assay (preincubation). In kind it is biochemical. As to the method:
as §1
The MIF tautomerase and cytokine inhibitor Compound 1 was designed as a potential irreversible inhibitor of MIF tautomerase activity. In an effort to investigate this mechanism, time dependent inhibitor analysis was carried out. In this experiment MIF was preincubated [P.I.] with Compound 1 for either 0 minutes, 20 minutes or 60 minutes followed by tautomerase enzyme activity determination.
Compound 1 was preincubated with MIF as indicated (0 min-60 min) and, a tautomerase dose-response analysis was carried out.

Where [2] appears, read: read-out: percent inhibition of IL-1β production.
Setting [3] is: read-out: percent inhibition of IL-6 production.
Where [4] appears, read: read-out: percent inhibition of IL-8 production.
Setting [5] is: read-out: percent inhibition of TNF-α production.
The mark [6] stands for this setting: read-out: percent inhibition of IL-17F production.
Where [7] appears, read: read-out: percent inhibition of IL-22 production.

Each structure is given as a SMILES string. Where two headings read alike, the source gives them in different places.

In general, IC50 refers to the concentration that gives 50% inhibition. Read a high IC50 as weaker potency. The term inhibition denotes the share of the control response that was lost under treatment. Consider `N#Cc1c(NC2CN(C(=O)CCl)C2)c2ccccc2n(Cc2ccc(F)cc2)c1=O` [Compound 1, 4-[1-(2-Chloro-acetyl)-azetidin-3-ylamino]-1-(4-fluoro-benzyl)-2-oxo-1,2-dihydro-quinoline-3-carbonitrile], for which the IC50 on Native human MIF is 1 to 100 µM; against MIF (0 minutes, no preincubation with MIF), 24 µM; on MIF (20 minutes preincubation with MIF), 6 µM; at MIF (60 minutes preincubation with MIF), 3 µM. Moreover, the inhibition at 2.5 µM with LPS-stimulated PBMCs (setting [2]) was greater than 70%; in the assay on LPS-stimulated PBMCs (setting [3]) it was 10 to 50%; with LPS-stimulated PBMCs (setting [4]), 10 to 50%; in the assay on LPS-stimulated PBMCs (setting [5]) it was 10 to 50%; in assay [1] (setting [6]), greater than 70%; in assay [1] (setting [7]), greater than 70%. Further, the inhibition at 25 µM in the assay with LPS-stimulated PBMCs (setting [2]) was greater than 70%; with LPS-stimulated PBMCs (setting [3]), greater than 70%; with LPS-stimulated PBMCs (setting [4]), 50 to 70%; with LPS-stimulated PBMCs (setting [5]), greater than 70%.

In turn, `C=CC(=O)N1CCN(c2c(C#N)c(=O)n(Cc3ccc(F)cc3)c3ccccc23)CC1` [Compound 2, 4-(4-acryloylpiperazin-1-yl)-1-(4-fluorobenzyl)-2-oxo-1,2-dihydroquinoline-3-carbonitrile] registered an IC50 against Native human MIF of 1 to 100 µM. For the same compound, the inhibition at 2.5 µM is greater than 70% with LPS-stimulated PBMCs (setting [2]); less than 10% in the assay on LPS-stimulated PBMCs (setting [3]); less than 10% in the assay on LPS-stimulated PBMCs (setting [4]); 10 to 50% in the assay on LPS-stimulated PBMCs (setting [5]); greater than 70% in assay [1] (setting [6]); 10 to 50% in assay [1] (setting [7]). Moreover, the inhibition at 25 µM in the assay on LPS-stimulated PBMCs (setting [2]) was greater than 70%; with LPS-stimulated PBMCs (setting [3]), less than 10%; in the assay with LPS-stimulated PBMCs (setting [4]) it was less than 10%; in the assay with LPS-stimulated PBMCs (setting [5]), greater than 70%.
